According to ChEMBL document CHEMBL3507680, “University of Dundee, Gates Library screen for HepG2 cell viability”:

Assay: Human HepG2 cell viability assay in 384 well format
Type: toxicity, cell-based
Parameters: dose 125 nL, time 70.5 hour; cytotoxicity at 70.5 h: concentration not given beside the values
Details: HepG2 cells, read-out: Inhibition

SMILES	cytotoxicity at 70.5 h [%]
CCS(=O)(=O)N1CC[C@@H]2[C@H]1CCC(=O)N2CCOC	-3.05
CC(C)CC(O)C1CCN(C(=O)c2ccc(C(F)(F)F)nc2O)CC1 (configuration not stated)	-5.89
CCC(CC)C(=O)N1CCN(Cc2nc3ccccc3c(=O)[nH]2)CC1	-14.5
CCN(C)C(=O)CCN(C)Cc1cnc(C)s1	-0.298
Cc1ncc(CN2CCCN(Cc3noc(C4CC4)n3)CC2)s1	23.6
Cc1cccnc1[C@H](C)Nc1nc(-c2cccnc2)nc2c1CNC2	-8.07
NC(=O)c1cncc(Oc2cccc(CN3CCCC3)c2Cl)n1	-4.84
O=S1(=O)CCC(N(Cc2nc(-c3ccccn3)no2)Cc2cccs2)C1 (configuration not stated)	-4.77
CCN(CC)S(=O)(=O)N1CCCC(c2ccc(C(=O)O)cc2)C1 (configuration not stated)	-4.81
COc1ccc(-c2cn3c(n2)CO[C@@H](CNCc2nccn2C)C3)cc1	6.44
CS(=O)(=O)NCCC(=O)NC1(c2ccc(F)cc2)CCCC1	-6.92
O=C(Nc1ccccc1)N1CCC2(CC(=O)N(c3ccsc3)C2)C1 (configuration not stated)	-10
Cc1cnn(C2CCCN(C(=O)c3ccc(N4CCCC4)nc3)C2)c1 (configuration not stated)	-7.94
CCc1nc(CN(C)C2CCN(CCCOc3ccccc3)C2)no1 (configuration not stated)	9.63
Cn1cc(CNc2ncnc3c2CCN(Cc2ccsc2)CC3)cn1	0.199
CSC(C)(C)CNC(=O)NCC[S+]([O-])c1ccccc1 (configuration not stated)	-6.22
CC(C)CNc1nc(C(=O)/N=c2\[nH]nc(C(C)(C)C)s2)cs1	4.48
Cc1ccc(Cl)c(NC(=O)c2cccc(CN3CC[C@H](O)C3)c2)c1	-5.5
CCNC(=O)NC[C@H]1COCc2nc3cc(OC)ccc3n21	-10.9

SMILES	cytotoxicity at 70.5 h [%]
c1ccc(N2CCOC3(CCCN(c4nncs4)C3)C2)nc1 (configuration not stated)	-2.74
CCNC(=O)c1cc(OC)c2cc(F)cc(C)c2n1	-12.9
COc1cc(CNC(=O)c2cc(Cl)ccc2F)ccn1	-5.8
c1cnn(CC2CCCN2Cc2ccc(-n3cccn3)cc2)c1 (configuration not stated)	-8.68
Cc1nnc(NC(=O)NC(C)C(=O)NC2CCCC2)s1 (configuration not stated)	-3.86
CCNC(=O)CCC(=O)NC1(c2cccc(C(F)(F)F)c2)CCC1	16.4
Cc1cc(NCCNS(C)(=O)=O)nc2cc3c(cc12)CCC3	-5.01
COc1ccc(Oc2ccc(CNC(=O)C(C)n3cncn3)cn2)cc1 (configuration not stated)	-0.159
Cc1cccc(Nc2noc3c2CN(C(=O)c2ccn(C)n2)CC3)c1C	3.73
CC1(C)CNC(=O)c2nc(CCCN3CCCC3)[nH]c2C1	-8.44
COc1cccc(CNC(=O)c2cc(C)nc(N3CCCC3)n2)c1	17.7
COc1ccc(S(=O)(=O)NCCC(O)c2ccccc2)c(C)c1 (configuration not stated)	-8.64
CC(C)Nc1cccc(CNC(=O)N2CCC[C@@H]2CO)c1	-2.37
O=C(c1cccc2c1OCCO2)N1CCCC(n2cccn2)C1 (configuration not stated)	-8.22
N#Cc1ccc(NCCc2n[nH]c(=O)[nH]2)cc1Cl	-10.2
Cc1oc(-c2cccc(F)c2)nc1CN1CCOCS1(=O)=O	-11.9
CCC(CO)N(Cc1cccc(-n2cccn2)c1)Cc1ccccn1 (configuration not stated)	8.06
O=C(c1cccnc1)N1C[C@@H]2CC[C@H](C1)N(Cc1ccc(F)cc1Cl)C2	2.53
CCN(C(=O)NCc1ncc(C)c(OC)c1C)C(C)c1cccnc1 (configuration not stated)	-9.02

SMILES	cytotoxicity at 70.5 h [%]
Cc1cc(N2CCCN(C(=O)CSCC3CC3)CC2)ccn1	-17.7
O=C(NCCOc1ccc(F)c(F)c1)NCc1cccc(CO)c1	-9.23
CCc1ccc2c(c1)C(CCNC(=O)CCc1ccsc1)C(=O)N2 (configuration not stated)	-2.26
Cc1cc(CN2CCC(CNC(=O)c3nccc4ccccc34)C2)[nH]n1 (configuration not stated)	9.66
CCN1CCOCC12CCN(c1nccs1)CC2	-13.5
NCC1(c2cccc(Br)c2)CCOCC1	-5.45
O=C1CC2(CCN(C(=O)c3ccccc3)C2)Nc2ccccc2N1 (configuration not stated)	-17.8
CCOc1ccnc(N2CCN(Cc3ncccc3C)CC2)n1	3.5
O=C(NCc1ccccn1)NCC(c1ccco1)N1CCCC1 (configuration not stated)	-1.51
Cc1cc(NC(=O)CN2CCN(C3CCCC3)C(=O)C2)nn1C	-4.01
c1ccc(CN2C[C@H]3CCC[C@@]3(COCC3CC3)C2)nc1	-0.925
Cc1cnc(C(=O)N2C[C@@H]3CN(CC4CCCC4)CCO[C@@H]3C2)cn1	25.7
Cc1noc(C)c1CCC(=O)N1CCCN(Cc2cccs2)CC1	-6
Cc1cccc2nc(CN3CCCC3Cn3cncn3)cn12 (configuration not stated)	-17
CCN(CC(=O)Nc1cc(C(C)(C)C)no1)Cc1ccc(Cl)s1	-3.4
O=C1c2ccccc2C(=O)N1CC(O)Cn1nc(-c2cccs2)oc1=O (configuration not stated)	5.68
CCOC[C@H]1CC[C@H]2[C@H](CCN2C(=O)c2ccncc2F)O1	-8.92
Cc1nn(C)c(N(C)C)c1CNC1CCOc2c(Cl)cccc21 (configuration not stated)	23.4
CCOCC1CN(S(=O)(=O)N(C)C)Cc2cnn(CC3CC3)c21 (configuration not stated)	2.18
